For assay [1], the target named is T1, PI3K-α (PIK3CA) wild-type (WT), p110α/p85α complex (Homo sapiens, UniProt P42336).
T1 construct: Recombinant, catalytically active human full length PIK3KA Wild-type and H1047R mutant; 6×His (N); purchased EMD Millipore Sigma 14-602M
The experiment in a line: PI3K-alpha kinase (PIK3CA) biochemical activity, ADP-Glo, wild-type. Particulars: Soy PI lipid substrate. In a few lines: (§1)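 ADP formation measured by ADP-Glo luminescence after reaction at 27 °C to about 10% ATP turnover, using 20 uM ATP, 50 uM PIP2diC8 or soy PI lipid, HEPES pH 7.4 with MgCl2. Enzyme (1-5 nM WT or H1047R p110α/p85α) and compound preincubated 1 h first; 10-point 1:3 curves fitted four-parameter for IC50.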

Assay [2] addresses PI3K-α (PIK3CA) in MDA-MB-453 cells (Homo sapiens, UniProt P42336). In words: PI3K-alpha kinase (PIK3CA) in vitro cell based assay, MDA-MB-453 cells, SureFire Ultra AlphaLisa. Particulars: read-out: PI3K-α (PIK3CA) in vitro cell based assay IC50. The gist of the method: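 Cells treated 3 h in serum-free MEM with 1 μg/mL insulin, 10-point 1:3 series in 0.3% DMSO, then lysed for SureFire Ultra AlphaLisa read-out. Inhibition normalized to DMSO (max) and 1 μM GDC-0032 (min); duplicate averages fitted by 4-parameter logistic for relative IC50.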

The target in assay [3] is T2, PI3K-α (PIK3CA) H1047R mutant, p110α/p85α complex (Homo sapiens, UniProt P42336, H1047R).
T2 construct: Recombinant, catalytically active human full length PIK3KA Wild-type and H1047R mutant; 6×His (N); purchased EMD Millipore Sigma 14-792M
In words: PI3K-alpha kinase (PIK3CA) biochemical activity, ADP-Glo, H1047R mutant. Particulars: Soy PI lipid substrate. The gist of the method:
as §1

T2 sequence (P42336 whole entry H1047R): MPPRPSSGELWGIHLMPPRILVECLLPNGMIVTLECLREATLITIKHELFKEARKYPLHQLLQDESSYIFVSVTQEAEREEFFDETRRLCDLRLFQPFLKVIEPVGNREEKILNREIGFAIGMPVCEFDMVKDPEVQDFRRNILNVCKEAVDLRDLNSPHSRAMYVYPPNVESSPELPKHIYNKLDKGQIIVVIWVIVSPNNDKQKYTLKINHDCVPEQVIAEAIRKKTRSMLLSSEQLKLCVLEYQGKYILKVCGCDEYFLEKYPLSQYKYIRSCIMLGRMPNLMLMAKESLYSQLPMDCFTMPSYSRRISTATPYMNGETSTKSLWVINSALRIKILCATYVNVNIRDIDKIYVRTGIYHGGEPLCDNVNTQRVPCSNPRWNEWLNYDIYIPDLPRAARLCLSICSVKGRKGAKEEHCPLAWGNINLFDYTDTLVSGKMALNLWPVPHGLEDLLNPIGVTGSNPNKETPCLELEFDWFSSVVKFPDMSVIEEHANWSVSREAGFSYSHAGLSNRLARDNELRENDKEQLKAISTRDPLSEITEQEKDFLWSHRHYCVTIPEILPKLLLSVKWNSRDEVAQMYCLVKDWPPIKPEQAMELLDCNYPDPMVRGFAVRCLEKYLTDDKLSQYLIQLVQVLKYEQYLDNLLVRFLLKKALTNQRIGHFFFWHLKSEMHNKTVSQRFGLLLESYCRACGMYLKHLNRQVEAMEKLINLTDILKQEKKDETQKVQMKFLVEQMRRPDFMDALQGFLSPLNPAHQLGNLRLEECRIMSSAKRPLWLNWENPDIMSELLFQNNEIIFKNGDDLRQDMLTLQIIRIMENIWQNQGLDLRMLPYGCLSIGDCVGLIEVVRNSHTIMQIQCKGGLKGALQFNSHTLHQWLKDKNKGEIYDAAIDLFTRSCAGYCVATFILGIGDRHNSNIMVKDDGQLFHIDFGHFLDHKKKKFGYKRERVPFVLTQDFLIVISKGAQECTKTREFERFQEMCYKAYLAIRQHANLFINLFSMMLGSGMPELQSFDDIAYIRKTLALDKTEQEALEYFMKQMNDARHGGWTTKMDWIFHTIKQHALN
T2 sequence (P27986 whole entry partner): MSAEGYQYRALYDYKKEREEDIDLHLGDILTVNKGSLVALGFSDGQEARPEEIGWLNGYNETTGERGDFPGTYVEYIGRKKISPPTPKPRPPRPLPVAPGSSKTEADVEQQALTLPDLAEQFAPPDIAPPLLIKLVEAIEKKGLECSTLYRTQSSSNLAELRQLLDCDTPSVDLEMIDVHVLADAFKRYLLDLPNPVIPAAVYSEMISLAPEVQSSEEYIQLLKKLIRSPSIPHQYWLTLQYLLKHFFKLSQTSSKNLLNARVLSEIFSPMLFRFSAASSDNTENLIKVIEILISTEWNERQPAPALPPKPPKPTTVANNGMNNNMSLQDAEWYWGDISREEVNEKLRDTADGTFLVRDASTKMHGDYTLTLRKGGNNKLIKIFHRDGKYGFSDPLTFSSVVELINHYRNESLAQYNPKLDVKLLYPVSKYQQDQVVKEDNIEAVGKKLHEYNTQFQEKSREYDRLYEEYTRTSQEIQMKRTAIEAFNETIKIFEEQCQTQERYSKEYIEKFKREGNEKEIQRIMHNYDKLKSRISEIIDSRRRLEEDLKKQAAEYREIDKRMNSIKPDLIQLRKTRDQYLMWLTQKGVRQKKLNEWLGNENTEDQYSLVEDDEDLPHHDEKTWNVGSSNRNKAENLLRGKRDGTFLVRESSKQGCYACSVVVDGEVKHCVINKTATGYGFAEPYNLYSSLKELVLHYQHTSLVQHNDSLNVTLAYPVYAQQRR
Sequence of PI3K-α (PIK3CA) in MDA-MB-453 cells (P27986 2-724): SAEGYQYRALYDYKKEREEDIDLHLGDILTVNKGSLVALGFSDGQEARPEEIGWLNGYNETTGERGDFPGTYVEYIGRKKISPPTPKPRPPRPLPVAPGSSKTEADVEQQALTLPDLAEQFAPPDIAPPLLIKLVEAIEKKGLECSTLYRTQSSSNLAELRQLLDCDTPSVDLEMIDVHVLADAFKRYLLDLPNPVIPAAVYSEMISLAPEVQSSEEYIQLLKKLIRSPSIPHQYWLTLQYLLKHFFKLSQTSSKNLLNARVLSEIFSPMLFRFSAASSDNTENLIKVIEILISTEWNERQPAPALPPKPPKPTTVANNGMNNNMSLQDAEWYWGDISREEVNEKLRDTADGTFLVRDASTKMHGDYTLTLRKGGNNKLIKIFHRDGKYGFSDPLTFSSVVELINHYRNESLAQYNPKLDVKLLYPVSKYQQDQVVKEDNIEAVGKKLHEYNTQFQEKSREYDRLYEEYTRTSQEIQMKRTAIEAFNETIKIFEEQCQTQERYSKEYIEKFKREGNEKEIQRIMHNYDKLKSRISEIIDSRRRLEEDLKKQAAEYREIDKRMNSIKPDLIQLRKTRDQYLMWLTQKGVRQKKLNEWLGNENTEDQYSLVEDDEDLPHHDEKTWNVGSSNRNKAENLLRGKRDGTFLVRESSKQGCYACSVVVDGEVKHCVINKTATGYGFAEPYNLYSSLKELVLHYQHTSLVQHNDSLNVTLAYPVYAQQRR
Sequence of PI3K-α (PIK3CA) in MDA-MB-453 cells (P42336 whole entry): as the sequence (P42336 whole entry H1047R) above, with R1047H counted along it

With `Cc1cc([C@@H](C)Nc2ccc(C)nc2C(=O)O)c2oc(-c3ccc4nc(C)sc4n3)c(C)c(=O)c2c1` [Example 265, 3-[[(1R)-1-[3,6-Dimethyl-2-(2-methylthiazolo[5,4-b]pyridin-5-yl)-4-oxo-chromen-8-yl]ethyl]amino]-6-methyl-pyridine-2-carboxylic acid], the figures for the IC50 in assay [1], in assay [2] and in assay [3] were 1000 to 5000 nM, 50 to 100 nM and below 500 nM, respectively.

As for `Cc1cc(C(C)Nc2ccccc2C(=O)O)c2oc(-c3ccc4cc[nH]c4c3)c(C)c(=O)c2c1` (single isomer, unassigned) [Example 90, 2-[1-[2-(1H-Indol-6-yl)-3,6-dimethyl-4-oxo-chromen-8-yl]ethylamino]benzoic acid], the values for the IC50 in assay [1], in assay [2] and in assay [3] were 1000 to 5000 nM, below 50 nM and below 500 nM, respectively.

Consider `Cc1cc([C@@H](C)Nc2cccc(F)c2C(=O)O)c2oc(-c3ccc4nc(C)cn4c3)c(C)c(=O)c2c1` [Example 229, 2-[[(1R)-1-[3,6-Dimethyl-2-(2-methylimidazo[1,2-a]pyridin-6-yl)-4-oxo-chromen-8-yl]ethyl]amino]-6-fluoro-benzoic acid], for which the figures for the IC50 in assay [1], in assay [2] and in assay [3] were below 500 nM, 100 to 500 nM and below 500 nM, respectively.

With `Cc1cc([C@@H](C)Nc2cccc(F)c2C(=O)O)c2oc(-c3ccc4nc(C)cn4c3)cc(=O)c2c1` [Example 228, 2-Fluoro-6-[[(1R)-1-[6-methyl-2-(2-methylimidazo[1,2-a]pyridin-6-yl)-4-oxo-chromen-8-yl]ethyl]amino]benzoic acid], the figures for the IC50 in assay [1], in assay [2] and in assay [3] were 500 to 1000 nM, 100 to 500 nM and below 500 nM, respectively.

Consider `Cc1cc(C(C)Nc2ccccc2C(=O)O)c2oc(-c3cc4ccccc4[nH]3)c(C)c(=O)c2c1` (single isomer, unassigned) [Example 52, 2-[1-[2-(1H-Indol-2-yl)-3,6-dimethyl-4-oxo-chromen-8-yl]ethylamino]benzoic acid], for which the results for the IC50 in assay [1], in assay [2] and in assay [3] were 500 to 1000 nM, below 50 nM and below 500 nM, respectively.

Regarding `COc1ccc2nc(-c3cc(=O)c4cc(C)cc([C@@H](C)Nc5ccccc5C(=O)O)c4o3)ccc2n1` [Example 255, 2-[[(1R)-1-[2-(6-Methoxy-1,5-naphthyridin-2-yl)-6-methyl-4-oxo-chromen-8-yl]ethyl]amino]benzoic acid], the IC50 in assay [1] is 1000 to 5000 nM; in assay [2] it was 50 to 100 nM; in assay [3], 500 to 1000 nM.

`Cc1cc([C@@H](C)Nc2ccccc2C(=O)O)c2oc(-c3cc(C(F)(F)F)c4nn(C)cc4c3)cc(=O)c2c1` [Example 198, 2-[[(1R)-1-[6-Methyl-2-[2-methyl-7-(trifluoromethyl)indazol-5-yl]-4-oxo-chromen-8-yl]ethyl]amino]benzoic acid]: the IC50 in assay [1] was below 500 nM; in assay [2], 50 to 100 nM; in assay [3] it was below 500 nM.

Consider `Cc1cc(C(C)Nc2ccccc2C(=O)O)c2oc(-c3cc4cnccc4o3)c(C)c(=O)c2c1` (single isomer, unassigned) [Example 153, 2-[1-(2-Furo[3,2-c]pyridin-2-yl-3,6-dimethyl-4-oxo-chromen-8-yl)ethylamino]benzoic acid], for which the IC50 in assay [1] was below 500 nM; in assay [2] it was below 50 nM; in assay [3], below 500 nM.

On to `CC(Nc1ccccc1C(=O)O)c1cc(F)cc2c(=O)cc(-c3cc4ccccc4[nH]3)oc12` (single isomer, unassigned) [Example 128, 2-[1-[6-Fluoro-2-(1H-indol-2-yl)-4-oxo-chromen-8-yl]ethylamino]benzoic acid], for which the values for the IC50 in assay [1], in assay [2] and in assay [3] were 500 to 1000 nM, below 50 nM and below 500 nM, respectively.

For the compound `Cc1cc([C@@H](C)Nc2ccc(F)cc2C(=O)O)c2oc(-c3ccc4nn(C)cc4c3)c(C)c(=O)c2c1` [Example 253, 2-[[(1R)-1-[3,6-Dimethyl-2-(2-methylindazol-5-yl)-4-oxo-chromen-8-yl]ethyl]amino]-5-fluoro-benzoic acid], the IC50 in assay [1] was below 500 nM; in assay [2], below 50 nM; in assay [3], below 500 nM.

Turning to `CC(Nc1ccccc1C(=O)O)c1cc(F)cc2c(=O)cc(-c3ccc4nn(C)cc4c3)oc12` (single isomer, unassigned) [Example 55, 2-[1-[6-Fluoro-2-(2-methylindazol-5-yl)-4-oxo-chromen-8-yl]ethylamino]benzoic acid], the concentration for half-maximal inhibition (IC50) was 1000 to 5000 nM in assay [1], below 50 nM in assay [2] and below 500 nM in assay [3].

On to `Cc1cc(C(C)Nc2ccc(Cl)nc2C(=O)O)c2oc(-c3ccc4cc[nH]c4n3)cc(=O)c2c1` (single isomer, unassigned) [Example 216, 6-Chloro-3-[1-[6-methyl-4-oxo-2-(1H-pyrrolo[2,3-b]pyridin-6-yl)chromen-8-yl]ethylamino]pyridine-2-carboxylic acid], for which the figures for the IC50 in assay [1], in assay [2] and in assay [3] were above 10000 nM, above 500 nM and 1000 to 5000 nM, respectively.

Regarding `Cc1cc(C(C)Nc2ccccc2C(=O)O)c2oc(-c3ccc4oc(C)nc4c3)cc(=O)c2c1` (single isomer, unassigned) [Example 19, 2-[1-[6-Methyl-2-(2-methyl-1,3-benzoxazol-5-yl)-4-oxo-chromen-8-yl]ethylamino]benzoic acid], the IC50 in assay [1] is 1000 to 5000 nM; in assay [2] it was above 500 nM; in assay [3], below 500 nM.

As to `Cc1cc(C(C)Nc2ccc(Cl)nc2C(=O)O)c2oc(-c3ccc4cc[nH]c4n3)cc(=O)c2c1` (stereo not drawn) [Example 195, 6-Chloro-3-[1-[6-methyl-4-oxo-2-(1H-pyrrolo[2,3-b]pyridin-6-yl)chromen-8-yl]ethylamino]pyridine-2-carboxylic acid], the IC50 in assay [1] is 500 to 1000 nM; in assay [2] it was below 50 nM; in assay [3], below 500 nM.

With `Cc1cc(C(C)Nc2ccccc2C(=O)O)c2oc(-c3ccc4c(cnn4C)c3)c(C)c(=O)c2c1` (single isomer, unassigned) [Example 150, 2-[1-[3,6-Dimethyl-2-(1-methylindazol-5-yl)-4-oxo-chromen-8-yl]ethylamino]benzoic acid], the IC50 is below 500 nM in assay [1], below 50 nM in assay [2] and below 500 nM in assay [3].

As for `Cc1cc(C(C)Nc2ccccc2C(=O)O)c2oc(-c3cccc4ocnc34)cc(=O)c2c1` (single isomer, unassigned) [Example 110, 2-[1-[2-(1,3-Benzoxazol-4-yl)-6-methyl-4-oxo-chromen-8-yl]ethylamino]benzoic acid], the IC50 in assay [1] is 5000 to 10000 nM; in assay [2] it was below 50 nM; in assay [3] it was below 500 nM.

With `Cc1cc(C(C)Nc2ccccc2C(=O)O)c2oc(-c3ccn4nncc4c3)cc(=O)c2c1` (single isomer, unassigned) [Example 58, 2-[1-[6-Methyl-4-oxo-2-(triazolo[1,5-a]pyridin-5-yl)chromen-8-yl]ethylamino]benzoic acid], the IC50 is 1000 to 5000 nM in assay [1], 100 to 500 nM in assay [2] and below 500 nM in assay [3].

As to `Cc1cc(C(C)Nc2cccc(F)c2C(=O)O)c2oc(-c3ccc4cnn(C)c4c3)cc(=O)c2c1` (single isomer, unassigned) [Example 221, 2-fluoro-6-[1-[6-methyl-2-(1-methylindazol-6-yl)-4-oxo-chromen-8-yl]ethylamino]benzoic acid], the values for the IC50 in assay [1], in assay [2] and in assay [3] were 500 to 1000 nM, above 500 nM and 1000 to 5000 nM, respectively.

Source of the values: patent US11878970B2, “Allosteric chromenone inhibitors of phosphoinositide 3-kinase (PI3K) for the treatment of disease” (Petra Pharma Corporation, priority 2021, dated 2024).
